This is an account of results in ChEMBL document CHEMBL2429724, “Computational POM evaluation of experimental in vitro Trypanosoma cruzi and Mycobacterium tuberculosis inhibition of heterocyclic-2-carboxylic acid (3-cyano-1,4-di-noxidequinoxalin-2-yl)amide derivatives” (Med Chem Res, 2013).

Values after ≈ are worked out from the molar mass of the structure shown.

Assay [1] deals with Trypanosoma cruzi. The assay can be described thus: Antimicrobial activity against benznidazole-resistant epimastigotes of Trypanosoma cruzi Tulahuen 2 assessed as growth inhibition at 25 uM measured on day 5 by spectrophotometry. The settings on record: Tulahuen 2, 120 h, read-out: GI. The class given is functional.
Assay [2] relates to Mycobacterium tuberculosis. Description: Antimicrobial activity against Mycobacterium tuberculosis H37Rv ATCC 27294 by microplate Alamar Blue assay. It counts as functional. A general note: Resazurin is reduced to fluorescent resorufin, in cell work by metabolically active cells.
The test system of assay [3] is Trypanosoma cruzi. The assay can be described thus: Antimicrobial activity against benznidazole-resistant epimastigotes of Trypanosoma cruzi Tulahuen 2 assessed as growth inhibition measured on day 5 by spectrophotometry. It counts as functional, organism-based. The settings on record: Tulahuen 2, 120 h.

Regarding `N#Cc1c(NC(=O)c2ccco2)[n+]([O-])c2cc(F)c(F)cc2[n+]1[O-]`, the inhibition of growth at 25 µM with Trypanosoma cruzi [1] came to 53%. Besides, the lowest concentration to inhibit growth in assay [2] (MIC) was 4.7 µg/mL (≈ 14.1 µM).

As for `N#Cc1c(NC(=O)c2cccs2)[n+]([O-])c2cc(F)c(F)cc2[n+]1[O-]`, the inhibition of growth at 25 µM in the assay with Trypanosoma cruzi [1] worked out at 92%.

In assay [2], `N#Cc1c(NC(=O)c2ccc([N+](=O)[O-])o2)[n+]([O-])c2ccc(C(F)(F)F)cc2[n+]1[O-]` came in with an MIC of 14.4 µg/mL (≈ 35.2 µM).

Consider `N#Cc1c(NC(=O)c2ccc([N+](=O)[O-])s2)[n+]([O-])c2ccccc2[n+]1[O-]`, for which, in the assay on Trypanosoma cruzi [1], the inhibition of growth at 25 µM stood at 0%. In assay [2], this molecule displayed a minimum inhibitory concentration (MIC) of 2.88 µg/mL (≈ 8.06 µM).

Turning to `Cc1ccc2c(c1)[n+]([O-])c(C#N)c(NC(=O)c1ccc([N+](=O)[O-])s1)[n+]2[O-]`, the inhibition of growth at 25 µM with Trypanosoma cruzi [1] was found to be 11.4%.

For the molecule `Cc1cc2c(cc1C)[n+]([O-])c(NC(=O)c1ccc([N+](=O)[O-])s1)c(C#N)[n+]2[O-]`, in the assay on Trypanosoma cruzi [1], the inhibition of growth at 25 µM was determined as 36.4%.

For the molecule `COc1ccc2c(c1)[n+]([O-])c(C#N)c(NC(=O)c1ccc([N+](=O)[O-])s1)[n+]2[O-]`, in assay [2], the MIC was found to be 9.54 µg/mL (≈ 24.6 µM).

As to `N#Cc1c(NC(=O)c2ccc([N+](=O)[O-])s2)[n+]([O-])c2ccc(Cl)cc2[n+]1[O-]`, the inhibition of growth at 25 µM in the assay on Trypanosoma cruzi [1] turned out to be 15%.

With `N#Cc1c(NC(=O)c2ccc([N+](=O)[O-])s2)[n+]([O-])c2cc(Cl)c(Cl)cc2[n+]1[O-]`, the inhibition of growth at 25 µM in the assay on Trypanosoma cruzi [1] stood at 29.8%.

For `N#Cc1c(NC(=O)c2ccc([N+](=O)[O-])s2)[n+]([O-])c2ccc(F)cc2[n+]1[O-]`, in the assay on Trypanosoma cruzi [1], the inhibition of growth at 25 µM turned out to be 2.5%.

For the molecule `N#Cc1c(NC(=O)c2ccc([N+](=O)[O-])s2)[n+]([O-])c2cc(F)c(F)cc2[n+]1[O-]`, the inhibition of growth at 25 µM in the assay on Trypanosoma cruzi [1] came out at 9.2%.

The molecule `N#Cc1c(NC(=O)c2ccc([N+](=O)[O-])s2)[n+]([O-])c2cc(C(F)(F)F)ccc2[n+]1[O-]` showed an MIC in assay [2] of 1.7 µg/mL (≈ 4 µM).

In the case of `N#Cc1c(NC(=O)c2ccc([N+](=O)[O-])s2)[n+]([O-])c2ccc(C(F)(F)F)cc2[n+]1[O-]`, the MIC in assay [2] was 6 µg/mL (≈ 14.1 µM).

Regarding `N#Cc1c(NC(=O)c2cccs2)[n+]([O-])c2ccc(F)cc2[n+]1[O-]`, the inhibition of growth at 25 µM with Trypanosoma cruzi [1] stood at 27.5%. The molecule further displayed an MIC in assay [2] of 1.47 µg/mL (≈ 4.45 µM).

`N#Cc1c(NC(=O)c2cccs2)[n+]([O-])c2cc(F)ccc2[n+]1[O-]`: in assay [2], it took 4.58 µg/mL (≈ 13.9 µM) to inhibit growth (MIC).

As for `N#Cc1c(NC(=O)c2cccs2)[n+]([O-])c2ccc(C(F)(F)F)cc2[n+]1[O-]`, the MIC in assay [2] worked out at 9.18 µg/mL (≈ 24.1 µM).

Regarding `N#Cc1c(NC(=O)c2ccc([N+](=O)[O-])o2)[n+]([O-])c2ccccc2[n+]1[O-]`, the inhibition of growth at 25 µM in the assay on Trypanosoma cruzi [1] was found to be 0.7%.

In the case of `Cc1ccc2c(c1)[n+]([O-])c(C#N)c(NC(=O)c1ccc([N+](=O)[O-])o1)[n+]2[O-]`, in the assay on Trypanosoma cruzi [1], the inhibition of growth at 25 µM was 0%.

Regarding `Cc1cc2c(cc1C)[n+]([O-])c(NC(=O)c1ccc([N+](=O)[O-])o1)c(C#N)[n+]2[O-]`, the inhibition of growth at 25 µM in the assay with Trypanosoma cruzi [1] was found to be 0%.

In the case of `COc1ccc2c(c1)[n+]([O-])c(C#N)c(NC(=O)c1ccc([N+](=O)[O-])o1)[n+]2[O-]`, in assay [2], inhibition of growth (MIC) required 14.5 µg/mL (≈ 39 µM).

Consider `N#Cc1c(NC(=O)c2ccc([N+](=O)[O-])o2)[n+]([O-])c2ccc(Cl)cc2[n+]1[O-]`, for which the MIC in assay [2] worked out at 5.81 µg/mL (≈ 15.5 µM).

For the molecule `N#Cc1c(NC(=O)c2ccc([N+](=O)[O-])o2)[n+]([O-])c2cc(Cl)c(Cl)cc2[n+]1[O-]`, in assay [2], the MIC is 13.6 µg/mL (≈ 33.1 µM).

The molecule `N#Cc1c(NC(=O)c2ccc([N+](=O)[O-])o2)[n+]([O-])c2ccc(F)cc2[n+]1[O-]` showed an MIC in assay [2] of 21.7 µg/mL (≈ 60.4 µM).

As to `N#Cc1c(NC(=O)c2ccc([N+](=O)[O-])o2)[n+]([O-])c2cc(F)c(F)cc2[n+]1[O-]`, in assay [2], it took 22.2 µg/mL (≈ 58.7 µM) to inhibit growth (MIC).

Take `N#Cc1c(NC(=O)c2ccc([N+](=O)[O-])o2)[n+]([O-])c2cc(C(F)(F)F)ccc2[n+]1[O-]`: 12.8 µg/mL (≈ 31.3 µM) was the least that counted as inhibitory in assay [2] (MIC).

In assay [2], `N#Cc1c(NC(=O)c2ccco2)[n+]([O-])c2ccc(Cl)cc2[n+]1[O-]` returned an MIC of 15.4 µg/mL (≈ 46.4 µM).

In the case of `N#Cc1c(NC(=O)c2ccco2)[n+]([O-])c2cc(Cl)c(Cl)cc2[n+]1[O-]`, in the assay on Trypanosoma cruzi [1], the inhibition of growth at 25 µM was determined as 31.6%.

`N#Cc1c(NC(=O)c2ccco2)[n+]([O-])c2ccc(F)cc2[n+]1[O-]`: the inhibition of growth at 25 µM in the assay with Trypanosoma cruzi [1] is 19.8%.

Turning to `N#Cc1c(NC(=O)c2ccco2)[n+]([O-])c2cc(C(F)(F)F)ccc2[n+]1[O-]`, in assay [2], the MIC stood at 17.9 µg/mL (≈ 49.1 µM).

On to `N#Cc1c(NC(=O)c2ccco2)[n+]([O-])c2ccc(C(F)(F)F)cc2[n+]1[O-]`, for which 24.2 µg/mL (≈ 66.5 µM) was the least that counted as inhibitory in assay [2] (MIC).

Take `N#Cc1c(NC(=O)c2cccs2)[n+]([O-])c2ccccc2[n+]1[O-]`: the inhibition of growth at 25 µM in the assay on Trypanosoma cruzi [1] is 19%. The molecule further returned an MIC in assay [2] of 5.38 µg/mL (≈ 17.2 µM).

Regarding `Cc1ccc2c(c1)[n+]([O-])c(C#N)c(NC(=O)c1cccs1)[n+]2[O-]`, the inhibition of growth at 25 µM in the assay with Trypanosoma cruzi [1] is 16.4%. This molecule registered an MIC in assay [2] of 2.08 µg/mL (≈ 6.37 µM).

On to `Cc1cc2c(cc1C)[n+]([O-])c(NC(=O)c1cccs1)c(C#N)[n+]2[O-]`, for which the inhibition of growth at 25 µM in the assay with Trypanosoma cruzi [1] turned out to be 13.5%. In addition, in assay [2], 1.19 µg/mL (≈ 3.5 µM) was the least that counted as inhibitory (MIC).

For `COc1ccc2c(c1)[n+]([O-])c(C#N)c(NC(=O)c1cccs1)[n+]2[O-]`, the inhibition of growth at 25 µM with Trypanosoma cruzi [1] turned out to be 15.1%. The molecule further came in with an MIC in assay [2] of 48.9 µg/mL (≈ 143 µM).

As for `N#Cc1c(NC(=O)c2cccs2)[n+]([O-])c2ccc(Cl)cc2[n+]1[O-]`, in assay [2], the MIC is 2.47 µg/mL (≈ 7.12 µM).

In assay [2], `N#Cc1c(NC(=O)c2cccs2)[n+]([O-])c2cc(Cl)c(Cl)cc2[n+]1[O-]` came in with an MIC of 13.6 µg/mL (≈ 35.7 µM).

Turning to `N#Cc1c(NC(=O)c2ccco2)[n+]([O-])c2ccccc2[n+]1[O-]`, the inhibition of growth at 25 µM in the assay with Trypanosoma cruzi [1] came to 3.1%. In addition, the MIC in assay [2] came to 0.977 µg/mL (≈ 3.3 µM).

Turning to `Cc1ccc2c(c1)[n+]([O-])c(C#N)c(NC(=O)c1ccco1)[n+]2[O-]`, the inhibition of growth at 25 µM in the assay with Trypanosoma cruzi [1] stood at 11.6%. The molecule further registered an MIC in assay [2] of 8.84 µg/mL (≈ 28.5 µM).

Regarding `Cc1cc2c(cc1C)[n+]([O-])c(NC(=O)c1ccco1)c(C#N)[n+]2[O-]`, in the assay with Trypanosoma cruzi [1], the inhibition of growth at 25 µM was 13.1%.

For the molecule `COc1ccc2c(c1)[n+]([O-])c(C#N)c(NC(=O)c1ccco1)[n+]2[O-]`, the inhibition of growth at 25 µM with Trypanosoma cruzi [1] came out at 9.5%.

On to `CC1CS(=O)(=O)CCN1/N=C/c1ccc([N+](=O)[O-])o1` (configuration not stated) [NIFURTIMOX], for which the MIC in the assay on Trypanosoma cruzi [3] was 7.7 µM (≈ 2.21 µg/mL). In addition, the inhibition of growth at 25 µM with Trypanosoma cruzi [1] was found to be 100%.

`CO[C@H]1/C=C/O[C@@]2(C)Oc3c(C)c(O)c4c(O)c(c(/C=N/N5CCN(C)CC5)c(O)c4c3C2=O)NC(=O)/C(C)=C\C=C\[C@H](C)[C@H](O)[C@@H](C)[C@@H](O)[C@@H](C)[C@H](OC(C)=O)[C@@H]1C` [RIFAMPIN] returned an MIC in assay [2] of 0.125 µg/mL (≈ 0.152 µM).

The MIC is the least concentration at which growth counts as inhibited.
